Assay results from patent US20070149456A1, “Epithelial sodium channel inhibiting agents and uses therefor” (University of Pittsburgh, priority 2005, published 2007).
pIC50, pKi: −log10 of the molar value. Where two headings read alike, the source gives them in different places.

Molecular target: T1, mouse ENaC (Mus musculus, UniProt Q61180+Q9WU38+Q9WU39, DEL206-231)
T1 construct: expressed in transfected cells; host or cells: Xenopus laevis oocytes (cRNA injection)
T1 sequence (Q61180 with tags, fused parts or gaps DEL206-231): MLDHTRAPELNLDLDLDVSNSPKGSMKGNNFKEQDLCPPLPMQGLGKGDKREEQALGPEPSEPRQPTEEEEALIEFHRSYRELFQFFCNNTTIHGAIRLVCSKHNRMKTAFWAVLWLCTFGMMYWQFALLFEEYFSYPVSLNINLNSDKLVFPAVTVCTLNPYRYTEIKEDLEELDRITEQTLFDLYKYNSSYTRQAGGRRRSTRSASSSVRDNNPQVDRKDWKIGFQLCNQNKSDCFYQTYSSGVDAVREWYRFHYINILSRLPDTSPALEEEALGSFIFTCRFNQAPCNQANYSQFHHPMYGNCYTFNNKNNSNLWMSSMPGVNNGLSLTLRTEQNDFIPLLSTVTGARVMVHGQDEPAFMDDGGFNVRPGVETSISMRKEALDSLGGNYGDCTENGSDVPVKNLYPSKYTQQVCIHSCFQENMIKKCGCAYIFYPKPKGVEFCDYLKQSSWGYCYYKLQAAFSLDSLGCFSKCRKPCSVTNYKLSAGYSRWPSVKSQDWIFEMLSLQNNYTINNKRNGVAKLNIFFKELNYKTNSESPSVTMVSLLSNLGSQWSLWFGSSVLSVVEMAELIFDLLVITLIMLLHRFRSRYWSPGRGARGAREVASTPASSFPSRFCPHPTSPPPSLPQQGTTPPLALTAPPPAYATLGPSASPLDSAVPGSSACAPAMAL
T1 sequence (Q9WU38 1-638): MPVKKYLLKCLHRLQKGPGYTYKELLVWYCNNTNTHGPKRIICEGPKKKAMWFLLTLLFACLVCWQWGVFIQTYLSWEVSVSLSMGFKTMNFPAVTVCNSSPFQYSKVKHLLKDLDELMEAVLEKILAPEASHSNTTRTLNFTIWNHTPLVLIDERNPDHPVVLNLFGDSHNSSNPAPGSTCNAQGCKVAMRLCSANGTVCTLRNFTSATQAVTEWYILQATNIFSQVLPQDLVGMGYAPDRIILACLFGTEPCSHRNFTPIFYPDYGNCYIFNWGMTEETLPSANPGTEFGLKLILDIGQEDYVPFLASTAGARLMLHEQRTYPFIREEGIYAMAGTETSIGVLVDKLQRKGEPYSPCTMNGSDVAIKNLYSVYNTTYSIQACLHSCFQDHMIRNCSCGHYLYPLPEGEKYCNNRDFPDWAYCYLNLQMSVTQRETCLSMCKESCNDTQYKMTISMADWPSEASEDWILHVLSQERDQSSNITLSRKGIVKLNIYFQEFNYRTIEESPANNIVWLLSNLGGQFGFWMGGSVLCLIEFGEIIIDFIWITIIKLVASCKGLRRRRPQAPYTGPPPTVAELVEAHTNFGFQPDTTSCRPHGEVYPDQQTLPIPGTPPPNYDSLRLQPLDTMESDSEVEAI
T1 sequence (Q9WU39 1-655): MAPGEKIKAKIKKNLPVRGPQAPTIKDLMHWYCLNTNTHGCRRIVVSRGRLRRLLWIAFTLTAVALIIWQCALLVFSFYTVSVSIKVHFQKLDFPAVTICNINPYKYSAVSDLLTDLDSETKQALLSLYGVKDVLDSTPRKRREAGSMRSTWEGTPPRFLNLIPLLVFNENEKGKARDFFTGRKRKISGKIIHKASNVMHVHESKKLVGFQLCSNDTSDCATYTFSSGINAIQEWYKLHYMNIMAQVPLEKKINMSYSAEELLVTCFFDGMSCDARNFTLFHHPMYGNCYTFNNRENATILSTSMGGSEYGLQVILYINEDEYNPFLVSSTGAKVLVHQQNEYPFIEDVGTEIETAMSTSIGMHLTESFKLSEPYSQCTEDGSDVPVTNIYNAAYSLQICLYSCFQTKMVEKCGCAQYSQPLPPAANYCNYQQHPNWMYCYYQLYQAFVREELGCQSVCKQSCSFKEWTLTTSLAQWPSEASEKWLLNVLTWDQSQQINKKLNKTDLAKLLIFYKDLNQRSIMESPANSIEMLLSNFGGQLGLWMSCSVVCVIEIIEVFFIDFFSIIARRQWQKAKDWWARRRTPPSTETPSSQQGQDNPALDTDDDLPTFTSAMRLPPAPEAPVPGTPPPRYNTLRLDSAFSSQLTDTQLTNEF
Experiment: Two-electrode voltage clamp, amiloride-sensitive whole cell Na+ current in Xenopus oocytes expressing wild-type αβγ ENaC
Type: cell-based
Source text: Oocyte Expression—cRNAs for α, β, γ mouse ENaC (wild-type and mutant) subunits and mouse prostasin were synthesized with T3 or T7 m-Message mMachineTM (Ambion, Austin, Tex.). Subunits carrying furin cleavage consensus site mutations and the corresponding wild-type subunits have amino-terminal HA and carboxyl-terminal V5 tags (Hughey, R. P., Bruns, J. B., Kinlough, C. L., Harkleroad, K. L., Tong, Q., Carattino, M. D., Johnson, J. P., Stockand, J. D., and Kleyman, T. R. (2004) J. Biol. Chem. 279, 18111-18114 18). Stage V-VI Xenopus laevis oocytes were pretreated with 1.5 mg/ml of type IV collagenase and injected with 0.5-2 ng of cRNA/subunit. Injected oocytes were maintained as previously reported (Carattino, M. D., Hill, W. G., and Kleyman, T. R. (2003), Arachidonic Acid Regulates Surface Expression of Epithelial Sodium Channels, J Biol. Chem. 278, 36202-36213 29).
Two-electrode Voltage Clamp—Two-electrode voltage clamp (TEV) was performed as previously described (Carattino, M. D., Hill, W. G., and Kleyman, T. R. (2003) J Biol. Chem. 278, 36202-36213 29). The extracellular solution (TEV solution) was (in mM): 110 NaCl, 2 KCl, 1.54 CaCl2, 10 HEPES, pH 7.4, or otherwise as indicated. […] Experiments with oocytes co-expressing ENaC and prostasin and the corresponding controls were performed in the presence of aprotinin (1 μM) to impede any potential degradation of α-26 by prostasin.
Data and Statistical Analyses—and mean time of inhibition are expressed as the mean with a 95% confidence interval (CI); otherwise, data were expressed as the mean ±S.E. (n), where “n” equals the number of independent experiments analyzed. IC50 was estimated from normalized currents plotted as a function of the peptide concentration fitted, as shown in Equation 1 y=t/(1+10^(logX−log/C50)) (Eq. 1) where y is the response variable, X is the concentration of peptide, and IC50 is the concentration of peptide that provokes a response half way between the baseline (t) and maximum response. […] Results

## Ac-DLRGALPHPLQRLRTPPPPNPARSAR-NH2 [α-26]
  pKi: ~5.52
1 μM α-26
  time required to achieve half maximal inhibition: 42 s
amiloride-sensitive current, 3 min perfusion with peptide (FIG. 3A), read-out: IC50, inhibition of wild-type αβγ
  pIC50: 5.55
Holding potential −20 mV, read-out: IC50 at holding potential −20 mV
  pIC50: 5.54
Holding potential −100 mV, read-out: IC50 at holding potential −100 mV
  pIC50: 5.54
α-26 1 μM, washout (FIG. 3D)
  reversibility of block: reversible inhibitor
